The results in this text go back to PubChem BioAssay (NCI).

Test systems include MOLT-4 leukemia; HOP-92 NSCLC; K-562 leukemia; MCF7 breast; UACC-62 melanoma; SK-MEL-5 melanoma; UO-31 renal; MDA-MB-231 breast; SNB-75 CNS; A498 renal; RPMI-8226 leukemia; KM12 colon; SK-MEL-28 melanoma; RXF 393 renal.
What all share (experiment): NCI tumour cell line growth inhibition, 48 h

SMILES strings stand for the structures.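 All cell lines were grown in 96-well plates and treated with compound for 48 hours. The concentration for full growth arrest is given as TGI.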

As for `Cc1ccc2c(=O)cc(-c3ccc(C)s3)[nH]c2n1`, the TGI in the experiment on MOLT-4 leukemia was above 100 µM; with HOP-92 NSCLC, above 100 µM; with K-562 leukemia it was above 100 µM; with MCF7 breast it was above 100 µM; in the experiment with UACC-62 melanoma, above 78.1 µM; with SK-MEL-5 melanoma it was 3.41 µM. The TGI in the experiment with UO-31 renal is 1.43 µM; in the experiment on MDA-MB-231 breast, above 100 µM; in the experiment with SNB-75 CNS, above 100 µM; in the experiment on A498 renal, above 70.9 µM; in the experiment with RPMI-8226 leukemia it was 2.57 µM; with KM12 colon, 15.9 µM.

`CCCSc1ccc2[nH]c(N3C(=O)/C(=C/c4ccc(SC)cc4)N=C3c3ccccc3)cc2c1`: the TGI was above 50 µM in the experiment with HOP-92 NSCLC; 5.43 µM with K-562 leukemia; above 50 µM with MCF7 breast; above 50 µM in the experiment on UACC-62 melanoma; above 36.3 µM in the experiment on SK-MEL-5 melanoma; above 50 µM in the experiment on UO-31 renal. The TGI was above 50 µM with MDA-MB-231 breast; above 50 µM in the experiment with SNB-75 CNS; above 50 µM in the experiment with A498 renal; above 50 µM in the experiment on SK-MEL-28 melanoma; above 46.6 µM in the experiment on RXF 393 renal; 32.7 µM in the experiment on KM12 colon.

On to `COc1ccc2c(c1)CCCN1CCc3ccccc3C21` (stereo unspecified), for which the TGI is above 100 µM in the experiment on MOLT-4 leukemia; above 100 µM with HOP-92 NSCLC; above 100 µM in the experiment with K-562 leukemia; above 100 µM with MCF7 breast; 83.1 µM with UACC-62 melanoma; above 100 µM in the experiment on SK-MEL-5 melanoma. Further, the TGI in the experiment on MDA-MB-231 breast was 72.2 µM; in the experiment on SNB-75 CNS it was 66.1 µM; in the experiment with A498 renal it was above 100 µM; in the experiment with SK-MEL-28 melanoma, above 100 µM; with RXF 393 renal, 73 µM; in the experiment on KM12 colon, above 100 µM.

Turning to `CCN(CC)CCN(C)c1ccc(CO)c2c1C(=O)c1ccccc1S2=O` (stereo unspecified), the TGI was 30.5 µM in the experiment with HOP-92 NSCLC; above 20.3 µM in the experiment on K-562 leukemia; above 34.5 µM in the experiment with MCF7 breast; 17.6 µM in the experiment with UACC-62 melanoma; 6.52 µM in the experiment with SK-MEL-5 melanoma; 42.1 µM in the experiment on UO-31 renal. Besides, the TGI in the experiment on MDA-MB-231 breast is 7.7 µM; in the experiment with SNB-75 CNS, 31.5 µM; in the experiment with A498 renal it was 23.4 µM; in the experiment on RPMI-8226 leukemia, 11.8 µM; in the experiment on SK-MEL-28 melanoma, 10.2 µM; with RXF 393 renal, 36 µM. The compound also gave a TGI with KM12 colon of 4.55 µM.

On to `CCCCc1ccc(Nc2nc(OC)c3ncn(C4CC(O)C(CO)O4)c3n2)cc1` (stereo unspecified), for which the TGI in the experiment with MOLT-4 leukemia is 36.7 µM; in the experiment on HOP-92 NSCLC it was 5.03 µM; with K-562 leukemia, above 100 µM; in the experiment with MCF7 breast, 29.4 µM; in the experiment on UACC-62 melanoma, 33.8 µM; in the experiment with SK-MEL-5 melanoma it was 33.8 µM. Also, the TGI turned out to be 35.7 µM in the experiment with UO-31 renal; 38 µM with MDA-MB-231 breast; 36.1 µM in the experiment on SNB-75 CNS; 35.3 µM with A498 renal; 71.9 µM with RPMI-8226 leukemia; 31.7 µM in the experiment with RXF 393 renal. The compound further had a TGI in the experiment with KM12 colon of 32 µM.

As to `CC(=O)NCC1OC2COC(c3ccccc3)OC2C(NC(=O)c2ccccc2)C1OC(=O)c1ccccc1` (stereo unspecified), the TGI with MOLT-4 leukemia, with HOP-92 NSCLC, with K-562 leukemia, in the experiment on MCF7 breast, in the experiment with UACC-62 melanoma and with SK-MEL-5 melanoma was above 100 µM in each case. The TGI in the experiment with UO-31 renal, in the experiment with MDA-MB-231 breast, in the experiment with SNB-75 CNS, in the experiment on A498 renal, in the experiment with SK-MEL-28 melanoma and in the experiment with RXF 393 renal was above 100 µM each time. In the experiment on KM12 colon, this compound yielded a TGI above 100 µM.

In the case of `COc1c(C(=O)NCCN(CCNC(=O)c2cccc(-c3cccc(C(=O)N(C)C)c3OC)c2OC)CCNC(=O)c2cccc(-c3cccc(C(=O)N(C)C)c3OC)c2OC)cccc1-c1cccc(C(=O)N(C)C)c1OC`, the TGI in the experiment with MOLT-4 leukemia worked out at 72.4 µM; with HOP-92 NSCLC, 46.2 µM; in the experiment on K-562 leukemia, 65 µM; with MCF7 breast, 78 µM; with UACC-62 melanoma, 67.2 µM; in the experiment with SK-MEL-5 melanoma it was 68.7 µM. Also, the TGI with UO-31 renal was above 100 µM; in the experiment with MDA-MB-231 breast, 81.2 µM; with SNB-75 CNS, 83.8 µM; in the experiment on RPMI-8226 leukemia it was 63.7 µM; in the experiment with SK-MEL-28 melanoma, 41.5 µM; in the experiment with RXF 393 renal, 63 µM. The same compound gave a TGI in the experiment with KM12 colon of 31.6 µM.

`O=C1Nc2nccnc2C(=O)N2CCC[C@@H]12`: the TGI in the experiment on MOLT-4 leukemia, in the experiment on HOP-92 NSCLC, in the experiment on K-562 leukemia, in the experiment on MCF7 breast, in the experiment with UACC-62 melanoma and with SK-MEL-5 melanoma was above 100 µM in each case. Besides, the TGI in the experiment with UO-31 renal, in the experiment with MDA-MB-231 breast, with SNB-75 CNS, in the experiment on RPMI-8226 leukemia, in the experiment on SK-MEL-28 melanoma and in the experiment on RXF 393 renal was above 100 µM each time. Further, in the experiment on KM12 colon, the TGI was above 100 µM.

`CCOP(=O)(OCC)C(C(=O)OC)C(=O)C(=O)Nc1cccc(O)c1` (stereo unspecified): the TGI in the experiment on MOLT-4 leukemia, in the experiment on HOP-92 NSCLC, in the experiment with MCF7 breast, with UACC-62 melanoma, in the experiment with SK-MEL-5 melanoma and with UO-31 renal was above 100 µM in each case. Further, the TGI in the experiment with MDA-MB-231 breast, with SNB-75 CNS, in the experiment on A498 renal, in the experiment with SK-MEL-28 melanoma, with RXF 393 renal and with KM12 colon was above 100 µM throughout.

Take `CC(=O)OCC(=O)OC[C@H](OCc1ccccc1)[C@@H]1[C@H](OC(C)=O)C(=O)N1Cc1ccccc1`: the TGI in the experiment with MOLT-4 leukemia, in the experiment on HOP-92 NSCLC, in the experiment with K-562 leukemia, in the experiment with MCF7 breast, in the experiment with UACC-62 melanoma and in the experiment with SK-MEL-5 melanoma was above 100 µM each time. The TGI in the experiment with UO-31 renal, with MDA-MB-231 breast, with SNB-75 CNS, in the experiment on A498 renal, in the experiment on RPMI-8226 leukemia and in the experiment on SK-MEL-28 melanoma was above 100 µM each time. For the same compound, the TGI with KM12 colon was above 100 µM.
